Results published in patent publication US20090227619A1, “Harmine derivatives, intermediates used in their preparations, preparation processes and use therefo” (priority 2003, published 2009).
“And” between values parts separate entries of the source, which are not always exact repeats. Identical values can stand only once. Like-named read-outs stand apart in the source and are kept apart here.

Columns and labels:
HepG2 = assay: In vitro cytotoxicity, IC50 by MTT method, HepG2; format: cell-based, human
Outline: (§1)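 MTT viability, 48 h exposure: cells 10^5/ml in RPMI1640 + 10% FBS, 37 °C/5% CO2; MTT 4 h, DMSO solubilisation, A490.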

Bel-7402 = assay: In vitro cytotoxicity, IC50 by MTT method, Bel-7402; format: cell-based
Outline: as §1

Lovo = assay: In vitro cytotoxicity, IC50 by MTT method, Lovo; format: cell-based
Outline: as §1

CT-DNA [1] = assay: DNA thermal denaturation, determination of ΔTm; format: binding; conditions: CT-DNA thermal denaturation; 20 uM compound; Tm of CT-DNA alone 61° C.
Experimental: Experiments were carried out in PE buffer (1 mM Na2HPO4, 0.1 mM EDTA, pH 7.6) in a thermostatically controlled cell hold, and the quartz cuvette (1 cm path length) was heated by circulating water at a heating rate of 0.5° C./min from 25 to 95° C. Amsacrine and Doxorubicin Hydrochloride were used as standards. In all cases, the concentration of CT-DNA was 15 ug/ml. The ‘melting’ temperature Tm was taken as the mid-point of the hyperchromic transition.
ΔTm=Tm^drug-DNA complex−Tm^DNA alone
The ΔTm of each compound was calculated, Experiments were repeated three times, and an average value was calculated.

BGC-823 = assay: In vitro cytotoxicity, IC50 by MTT method, BGC-823; format: cell-based
Outline: as §1

CT-DNA [2] = assay: UV absorption spectrum method with CT-DNA; format: binding; conditions: CT-DNA 40 ug/ml, compound 20 uM, 37° C. for 2 h, OD at 260 nm
Experimental: Compounds to be tested (20 uM) were added into the PE buffer solution, and its scan curve was identified by the spectrograph at a wavelength of from 200 to 400 nm. CT-DNA (40 ug/ml) and compounds to be tested (20 uM) were added into the PE buffer solution. The mixture was cultured at 37° C. for 2 h, and its scan curve was identified by the UV spectrograph at a wavelength of from 200 to 400 nm. […] After that, the OD value at 260 nm of the scan curve of the medicaments tested and that of the CT-DNA mixture OD value at 260 nm of the scan curve were calculated and compared to determine the influences of the medicaments tested on the UV absorption spectrum of the DNA molecules.

S180 sarcoma = conditions: comparison table 43, in vivo, S180 sarcoma
PLA-801 = assay: In vitro cytotoxicity, IC50 by MTT method, PLA-801; format: cell-based
Outline: as §1

NIH3T3 = assay: In vitro cytotoxicity, IC50 by MTT method, NIH3T3; format: cell-based
Outline: as §1

Hela = assay: In vitro cytotoxicity, IC50 by MTT method, Hela; format: cell-based
Outline: as §1

Lewis lung cancer = conditions: comparison table 43, in vivo, Lewis lung cancer;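 also: mice implanted subcutaneously in the axilla with Lewis lung tumor cells, treated starting the following day, killed roughly three weeks after implantation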
Description: There was one group of 8 to 10 mice C57BL/6 and Kunming mice for the anti-tumor tests and two groups of mice for negative control.
(3) Sources of tumors: Lewis lung cancer cells and S180 sarcoma in mice, which were sub-cultured and maintained by Pharmacological Center of Shanghai Pharmaceutical Industrial Research Institute.
All samples were weighed and added a small amount of Tween-80 to facilitate dissolution during the experiment, and then 0.5% CMC-Na solution was gradually added to achieve the desired concentration. The volume for experiment was 0.5 ml/20 g mouse.
The medicaments were intraperitoneally administered once a day continuously for 10 days.
For the negative control group, a vehicle of the same volume was intraperitoneally administered once a day continuously for 10 days. For the positive control group, CTX was administered in the dosage of 30 mg/kg once a day continuously for 7 days.
In vivo anti-tumor subcutaneous vaccination in the axilla was employed. Wildly grown tumor source was taken under sterile conditions to form a cell suspension of about 1×10^7 ml by homogenization method. For a corresponding mouse host, the suspension was injected in the axilla in an amount of 0.2 ml/mouse. The next day, the medicaments were administered according to the design of the tests. About three weeks later, all the groups of animals were executed. The tumors were taken from the animals and weighed. The inhibition rate of tumors was calculated according to the following formula:
T: average tumor weight of treated group; C: average tumor weight of negative control group.

[3] = Solubility (physico-chemical data tables); conditions: qualitative
[4] = HepG2 cell strain, read-out: IC50 HepG2
[5] = Bel7402 cell strain, read-out: IC50 Bel7402
[6] = Lovo cell strain, read-out: IC50 Lovo
[7] = BGC823 cell strain, read-out: IC50 BGC823
[8] = PLA-801 cell strain, read-out: IC50 PLA-801
[9] = NIH3T3 cell strain, read-out: IC50 NIH3T3
[10] = Table 12, 3,9-disubstituted β-carboline derivatives
[11] = Hela cell strain, read-out: IC50 Hela
[12] = Homo sapiens, HepG2 cell strain, read-out: IC50 HepG2
[13] = Homo sapiens, Bel-7402, Bel7402 cell strain, read-out: IC50 Bel7402
[14] = Homo sapiens, Lovo cell strain, read-out: IC50 Lovo
[15] = Homo sapiens, BGC-823, BGC823 cell strain, read-out: IC50 BGC823
[16] = Mus musculus, NIH3T3 cell strain, read-out: IC50 NIH3T3
[17] = Table 15, 1,3,9-substituted β-carboline derivatives
[18] = Homo sapiens, Hela cell strain, read-out: IC50 Hela

| SMILES | Influence on the UV absorption of DNA (CT-DNA [2]) | IC50 (HepG2; [4]) | IC50 (Bel-7402; [5]) | IC50 (Lovo; [6]) | IC50 (BGC-823; [7]) | IC50 (PLA-801; [8]) | IC50 (NIH3T3; [9]) | IC50 (Hela; [11]) | IC50 (HepG2; [12]) | IC50 (Bel-7402; [13]) | IC50 (Lovo; [14]) | melting point | IC50 (BGC-823; [15]) | IC50 (NIH3T3; [16]) | Solubility [3, 17] | IC50 (Hela; [18]) | also measured |
| --- | --- | --- | --- | --- | --- | --- | --- | --- | --- | --- | --- | --- | --- | --- | --- | --- | --- |
| COc1ccc2c(c1)[nH]c1c(C)nccc12 [Compound 1, reference compound] | reduce the UV absorption of DNA |  |  |  |  |  |  |  |  |  |  |  |  |  |  |  | IC50 (HepG2; Homo sapiens, HepG2): 50 µM; IC50 (Bel-7402; Homo sapiens, Bel-7402): 20 µM; IC50 (Lovo; Homo sapiens, LoVo): 70 µM; ΔTm (CT-DNA [1]): 8.5 °C; IC50 (BGC-823; Homo sapiens, BGC-823): 70 µM; Inhibition rate (%) S180 sarcomata (S180 sarcoma): 15.3%; IC50 (PLA-801): 50 µM; IC50 (NIH3T3; Mus musculus, NIH3T3): 60 µM; IC50 (Hela; Homo sapiens, HeLa): 60 µM; Inhibition rate (%) Lewis cancer (Lewis lung cancer): 34.1% |
| O=C(O)c1cc2c3ccccc3n(Cc3c(F)c(F)c(F)c(F)c3F)c2cn1 [Compound 49, 9-(2′,3′,4′,5′,6′-pentafluoro)benzyl-β-carboline-3-carboxylic acid] | increase the UV absorption of DNA | 30 µM | 60 µM | 10 µM | 40 µM | 90 µM | 20 µM | 40 µM |  |  |  |  |  |  |  |  | Solubility [3, 10]: soluble in DMSO |
| O=C(Cn1c2ccccc2c2cc(C(=O)O)ncc21)c1ccccc1 [Compound 50, 9-acetophenone-β-carboline-3-carboxylic acid] |  | 90 µM | 140 µM | 70 µM | 60 µM | 140 µM | 50 µM | 70 µM |  |  |  |  |  |  |  |  | Solubility [3, 10]: soluble in DMSO |
| Cc1nc(C(=O)O)cc2c3ccccc3n(Cc3ccccc3)c12 [Compound 64, 9-benzyl-1-methyl-β-carboline-3-carboxylic acid] |  |  |  |  |  | 410 µM |  |  | 280 µM | 690 µM | 200 µM | 246 to 248 °C | 280 µM | 140 µM | soluble in DMSO | 370 µM |  |
| Cc1nc(C(=O)O)cc2c3ccccc3n(Cc3c(F)c(F)c(F)c(F)c3F)c12 [Compound 66, 9-(2′,3′,4′,5′,6′-pentafluoro)benzyl-1-methyl-β-carboline-3-carboxylic acid] | increase the UV absorption of DNA | 120 µM | 120 µM | 80 µM | 160 µM | 190 µM | 80 µM | 110 µM |  |  |  |  |  |  | soluble in DMSO |  |  |
| Cc1nc(C(=O)O)cc2c3ccccc3n(CC(=O)c3ccccc3)c12 [Compound 67, 9-acetophenone-1-methyl-β-carboline-3-carboxylic acid] |  | 2230 µM | > 3000 µM | 1340 µM | 1520 µM | 2000 µM | 1460 µM | 2480 µM |  |  |  |  |  |  | soluble in DMSO |  |  |
| CCCc1nc(C(=O)O)cc2c3ccccc3n(Cc3ccccc3)c12 [Compound 74, 9-benzyl-1-propyl-β-carboline-3-carboxylic acid] |  |  |  |  |  | 270 µM |  |  | 170 µM | 180 µM | 140 µM | 193 to 194 °C | 270 µM | 160 µM | soluble in DMSO | 160 µM |  |
| Cn1c2ccccc2c2cc(C(=O)O)nc(-c3ccccc3)c21 [Compound 78, 9-methyl-1-phenyl-β-carboline-3-carboxylic acid] |  |  |  |  |  | 650 µM |  |  | 160 µM | 280 µM | 110 µM | 223 to 234 °C and 223 to 224 °C | 210 µM | 150 µM | soluble in DMSO | 170 µM |  |
| CCn1c2ccccc2c2cc(C(=O)O)nc(-c3ccccc3)c21 [Compound 79, 9-ethyl-1-phenyl-β-carboline-3-carboxylic acid] |  |  |  |  |  | 110 µM |  |  | 160 µM | 140 µM | 100 µM | 194 to 195 °C | 250 µM | 120 µM | soluble in DMSO | 140 µM |  |
| CCCCn1c2ccccc2c2ccncc21 [Compound 83, 9-n-butyl-β-carboline] | reduce the UV absorption of DNA |  |  |  |  | 130 µM |  |  | 100 µM | 160 µM | 130 µM | 78 to 79 °C | 100 µM | 80 µM |  | 90 µM | ΔTm (CT-DNA [1]): 2.4 °C |
